Reference: patent publication US8703951B2, “Synthesis of 4H-benzo[D]pyrrolo[1,2-A]thiazoles and indolizino[6,7-b]indole derivatives and their use as antitumor therapeutic agents” (Academia Sinica, priority 2011, dated 2014)
Like-named read-outs stand apart in the source and are kept apart here.

Legend:
[1] = tested on: human large cell lung carcinoma H460 xenograft; details: combination with arsenic trioxide (ATO); background; cited from earlier work
[2] = tested on: cisplatin-resistant NTUB 1/P human bladder carcinoma xenografts; details: combination with arsenic trioxide (ATO); background; cited from earlier work
oral cancer OECM-1 = assay: In vitro cytotoxicity, Alamar blue assay, OECM-1; assay type: cell-based, human
Description: (§1) Prostate cancer PC3, non-small cell lung carcinoma cells H1299, and human glioma cells U87 were purchased from the American Type Culture Collection (Rockville, Md.). OECM-1 (human gingival squamous cell carcinoma cells) was obtained from Dr C.-L. Meng (National Defense Medical College, Taiwan).^22
(§2) In preparation for in vitro cytotoxicity assays, cells were cultured at an initial density 2−5×10^4 cells per milliliter. They were maintained in a 5% CO2-humidified atmosphere at 37° C. in RPMI medium 1640 (GIBCO/BRL) containing penicillin (100 units/mL), streptomycin (100 μg/mL, GIBCO/BRL), and 5% heat-inactivated FBS. For cells grown in suspension (such as CCRF-CEM and its sublines), cytotoxicity was measured, by using XTT microculture method^23 in 96-well microtiter plates.
(§3) The cytotoxic effects of the newly synthesized compounds were determined in T-cell acute lymphocytic leukemia (CCRF-CEM) and their resistant subcell lines (CCRF-CEM/Taxol and CCRF-CEM/VBL) by the XTT assay^24 and human solid tumor cells (i.e. breast carcinoma MX-1 and colon carcinoma HCT-116) by the SRB assay^25 in a 72 h incubation using a microplate spectrophotometer as described previously.^25 After the addition of phenazine methosulfate-XTT solution, incubated at 37° C. for 6 h and absorbance at 450 and 630 nm was detected on a microplate reader (EL 340). The cytotoxicity of the newly synthesized compounds against non-small cell lung carcinoma H1299, prostate cancer PC3, oral cancer OECM-1 and glioma U87 were determined by the Alamar blue assay^26 in a 72 h incubation using a microplate spectrophotometer as described previously. After the addition of alamar blue solution, it was incubated at 37° C. for 6 h. Absorbance at 570 and 600 nm was detected on a microplate reader. IC50 values were determined from dose-effect relationship at six or seven concentrations of each drug using the CompuSyn software by Chou and Martin^27 based on the median-effect principle and plot.^28,29 Ranges given for Cisplatin were mean±SE (n=4).

[3] = tested on: non-small cell lung carcinoma H1299; assay: In vitro cytotoxicity, Alamar blue assay, H1299; assay type: cell-based, human
Description: as §1, §2, §3

breast carcinoma MX-1 = assay: In vitro cytotoxicity, SRB assay, MX-1; assay type: cell-based, human; details: Table 6, 72 h
Source text: (§4) Human colon carcinoma HCT-116 cells and human prostate adenocarcinoma PC-3 cells were obtained from American Type Culture Collection (ATCC, Rockville, Md.). Human mammary carcinoma (MX-1) tumor cells were obtained from MSKCC cell bank. The CCRF-CEM human lymphoblastic leukemia cells and their vinblastine resistant subline (CCRF-CEM/VBL, 680-fold resistance in vitro) were obtained from Dr. William Beck of the University of Illinois, Chicago, and CCRF-CEM/Taxol (330-fold resistance in vitro). Resistant cells CCRF-CEM/taxol were produced by exposing the parent cells to increasing sublethal concentration (IC50-IC90) of paclitaxel for six months.
as §2, §3

CCRF-CEM/VBL = assay: In vitro cytotoxicity, XTT assay, CCRF-CEM/VBL; assay type: cell-based, human; details: Table 5; for fold of cross-resistant vs IC50 of the parent cell line, CCRF-CEM/VBL: number in brackets; for IC50: vinblastine-resistant subline, XTT, 72 h, read-out: Cell Growth inhibition (IC50 μM) CCRF-CEM/VBL
Source text: as §4, §2, §3

linearized pBR322DNA = assay: DNA cross-linking, alkaline agarose gel shift assay; assay type: biochemical; details: 1, 10, and 20 μM; FIG. 8
Description: Formation of DNA cross-linking was analyzed by alkaline agarose gel electrophoresis assay. […] The reaction mixture was incubated at 37° C. for 2 h. At the end of reaction, the plasmid DNA was linearized by digestion with BamHI and followed by precipitation with ethanol. The DNA pellets were dissolved and denatured in alkaline buffer (0.5 N NaOH-10 mM EDTA). An aliquot of 20 μL of DNA solution (1000 ng) was mixed with 4 μL of 6× alkaline loading dye and then electrophoretically resolved on a 0.8% alkaline agarose gel with NaOH-EDTA buffer at 4° C. The electrophoresis was carried out at 18 V for 22 h. After staining the gels with an ethidium bromide solution, the DNA was then visualized under UV light.

colon carcinoma HCT-116 = assay: In vitro cytotoxicity, SRB assay, HCT-116; assay type: cell-based, human; details: Table 6, 72 h
Source text: as §4, §2, §3

glioma U87 = assay: In vitro cytotoxicity, Alamar blue assay, U87; assay type: cell-based, human
Description: as §1, §2, §3

[4] = tested on: human lymphoblastic leukemia (CCRF-CEM); assay: In vitro cytotoxicity, XTT assay, CCRF-CEM; assay type: cell-based
Source text: as §4, §2, §3

prostate cancer PC3 = assay: In vitro cytotoxicity, Alamar blue assay, PC3; assay type: cell-based, human
Description: as §1, §2, §3

CCRF-CEM/Taxol = assay: In vitro cytotoxicity, XTT assay, CCRF-CEM/Taxol; assay type: cell-based, human; details: Table 5; for IC50: Taxol-resistant subline, XTT, 72 h, read-out: Cell Growth inhibition (IC50 μM) CCRF-CEM/Taxol; for fold of cross-resistant vs IC50 of the parent cell line, CCRF-CEM/Taxol: number in brackets
Source text: as §4, §2, §3

[5] = tested on: MX-1 human mammary xenograft; assay: Therapeutic efficacy in nude mice bearing MX-1 xenograft; assay type: in vivo; details: for complete tumor remission (CR): FIG. 6, i.v. inj., n=4
Description: Athymic nude mice bearing the nu/nu gene were obtained from NCI, Frederick, Md. and used for all human tumor xenografts. Male nude mice, 6 weeks or older, weighing 20-24 g or more were used. Compounds were administered via the tail vein for i.v. injection or infusion as described previously.^26 A typical formulation for chemotherapeutic studies for each drug was dissolved in DSMO to make a 25 mg/ml fresh solution, 0.4 ml of this solution was mixed with 0.3 ml of Tween 80, plus 1.3 ml to make 2 ml of 5 mg/ml solution. Bolus injection volume was 0.1-0.2 ml per mouse. Tumor volume was assessed by measuring length×width×height (or width) by using a caliper. For tumor-bearing nude mice during the course of the experiment, the body weight refers to total weight minus the weight of the tumor. All animal studies were conducted in accordance with the guidelines for the National Institute of Health Guide for the Care and Use of Animals and the protocol approved by the Institutional Animal Care and Use Committee.

[6] = Table 5, 72 h incubation, read-out: Cell Growth inhibition (IC50 μM) CCRF-CEM

SMILES | IC50 (oral cancer OECM-1; Table 6, 72 h) | IC50 ([3]; Table 6, 72 h) | IC50 (breast carcinoma MX-1) | fold of cross-resistant vs IC50 of the parent cell line, CCRF-CEM/VBL (CCRF-CEM/VBL) | IC50 (CCRF-CEM/VBL) | DNA interstrand cross-linking (linearized pBR322DNA) | IC50 (colon carcinoma HCT-116) | IC50 (glioma U87; Table 6, 72 h) | IC50 [4, 6] | IC50 (prostate cancer PC3; Table 6, 72 h) | IC50 (CCRF-CEM/Taxol) | fold of cross-resistant vs IC50 of the parent cell line, CCRF-CEM/Taxol (CCRF-CEM/Taxol) | complete tumor remission (CR) [5] | other results
CNC(=O)OCc1c(COC(=O)NC)c(-c2ccc(OC)cc2)n2c1Cc1ccccc1-2 [BO-1012] |  |  |  |  |  |  |  |  |  |  |  |  |  | tumor suppression [1]: more than 82%; tumor suppression [2]: > 92%
CCNC(=O)OCc1c(COC(=O)NCC)c2sc3ccccc3n2c1-c1ccc(Cl)cc1 [Compound 19c, (1-(4-Chlorophenyl)benzo[d]pyrrolo[2,1-b]thiazole-2,3-diyl)bis(methylene)bis(ethylcarbamate)] | 11.6 ± 2.84 µM | 4.33 ± 0.45 µM | 0.91 ± 0.01 µM | 1.85 × | 0.39 ± 0.012 µM | able to bind covalently (interstrand cross-linking) with DNA | 0.7 ± 0.008 µM | 26 ± 2.27 µM | 0.21 ± 0.01 µM | 13.8 ± 3.78 µM | 0.32 ± 0.003 µM | 1.52 × |  | 
CC(C)NC(=O)OCc1c(-c2ccc(F)cc2)c2sc3ccccc3n2c1COC(=O)NC(C)C [Compound 20b, (1-(4-Fluorophenyl)benzo[d]pyrrolo[2,1-b]thiazole-2,3-diyl)bis(methylene)bis(iso-propylcarbamate)] | 11.9 ± 2.9 µM | 33 ± 3.2 µM | 0.62 ± 0.014 µM | 3.80 × | 0.19 ± 0.003 µM |  | 0.35 ± 0.01 µM | 53.5 ± 9.97 µM | 0.05 ± 0.001 µM | 24.2 ± 4.17 µM | 0.16 ± 0.007 µM | 3.20 × |  | complete tumor remission (CR), mice ([5]; 20 mg/kg, Q2Dx3 and then 25 mg/kg, Q2D×4, iv. inj., on D26 and 28): two out of three
CC(C)NC(=O)OCc1c(COC(=O)NC(C)C)c2sc3ccccc3n2c1-c1ccc(Cl)cc1 [Compound 20c, (1-(4-Chlorophenyl)benzo[d]pyrrolo[2,1-b]thiazole-2,3-diyl)bis(methylene)bis(iso-propylcarbamate)] | 7.54 ± 0.95 µM | 8.75 ± 0.88 µM | 1.19 ± 0.004 µM | 5.25 × | 0.42 ± 0.001 µM | able to bind covalently (interstrand cross-linking) with DNA | 1.7 ± 0.006 µM | 29 ± 4.49 µM | 0.08 ± 0.0003 µM | 13.7 ± 1.28 µM | 0.39 ± 0.004 µM | 4.87 × |  | complete tumor remission, mice ([5]; 20 mg/kg, Q2Dx3 and then 25 mg/kg, Q2Dx5, on D24, 26, and 26, FIG. 5A): all three
CC(C)NC(=O)OCc1c(COC(=O)NC(C)C)c2n(c1-c1ccc(F)cc1)CC(C)c1c-2[nH]c2ccccc12 (centres unmarked) [Compound 28c, [3-(4-Fluorophenyl)-6-methyl-6,11-dihydro-5H-indolizino[6,7-b]indole-1,2-diyl]bis(methylene) (isopropylcarbamate)] |  |  |  |  |  |  |  |  |  |  |  |  | CR was achieved | IC50 (oral cancer OECM-1; Table 7, 72 h, read-out: IC50 (μM) OECM1): 6.56 ± 1.15 µM; IC50 ([3]; Table 7, 72 h): 16.9 ± 2.69 µM; IC50 ([4]; Table 7, 72 h, read-out: IC50 (μM) CCRF/CEM): 0.106 ± 0.004 µM
CCn1c2c(c3ccccc31)Cc1c(CO)c(CO)c(C)n1C2 [Compound 33b, [6-Ethyl-3-methyl-6,11-dihydro-5H-indolizino[6,7-b]indole-1,2-diyl]dimethanol] |  |  |  |  |  |  |  |  |  |  |  |  | CR was achieved | IC50 (oral cancer OECM-1; Homo sapiens, OECM1, Table 7, 72 h): 1.17 ± 0.89 µM; IC50 ([3]; Homo sapiens, NCI-H1299, Table 7, 72 h): 2.97 ± 0.55 µM; melting point: 216 to 217 °C; IC50 (glioma U87; Homo sapiens, Table 7, 72 h): 6.26 ± 1.43 µM; IC50 ([4]; Homo sapiens, CCRF-CEM, Table 7, 72 h, read-out: IC50 (μM) CCRF/CEM): 0.1 ± 0.002 µM; IC50 (prostate cancer PC3; Homo sapiens, Table 7, 72 h): 2.66 ± 0.47 µM
